In PubChem BioAssay AID624433 (The Scripps Research Institute Molecular Screening Center, 2012) one finds IC50 data, which are given here for seven compounds.

SMILES strings stand for the structures. pIC50: −log10 of the molar value. Activity calls are given as the source filed them.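 Rule for the calls: active = compounds whose fitted IC50 falls under 25000 nM; inactive = the rest.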

Sequence of Serine/threonine-protein phosphatase 5 (Homo sapiens) (P53041 whole entry, looked up): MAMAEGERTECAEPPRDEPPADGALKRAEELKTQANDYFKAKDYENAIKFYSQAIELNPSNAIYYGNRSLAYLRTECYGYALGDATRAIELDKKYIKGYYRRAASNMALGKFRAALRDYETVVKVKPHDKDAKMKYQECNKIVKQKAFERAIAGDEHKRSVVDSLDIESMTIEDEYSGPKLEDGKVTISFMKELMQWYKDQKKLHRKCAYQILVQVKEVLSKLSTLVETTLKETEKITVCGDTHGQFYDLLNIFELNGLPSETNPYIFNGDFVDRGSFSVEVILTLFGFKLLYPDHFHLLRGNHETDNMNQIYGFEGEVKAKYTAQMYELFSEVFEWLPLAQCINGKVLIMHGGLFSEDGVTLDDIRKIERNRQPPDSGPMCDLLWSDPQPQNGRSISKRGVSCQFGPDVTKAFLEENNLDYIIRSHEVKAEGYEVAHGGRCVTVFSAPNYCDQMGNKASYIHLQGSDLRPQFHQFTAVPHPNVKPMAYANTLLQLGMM

The experiment addresses Serine/threonine-protein phosphatase 5 (Homo sapiens) (UniProt P53041). The experiment can be described thus: PP5 inhibitor IC50 with OMFP, dose response, biochemical, fluorescence, round 5, 3.8 nM low dose (AID 624433). The conditions noted are these: purified PP5c, OMFP dephosphorylation.
For the compound `O=C(O)c1n[nH]nc1-c1ccccn1`, the IC50 result is “inactive”.

The term pIC50 denotes the IC50 on a negative log10 scale, so that one unit is a factor of ten. Turning to `CCOc1ccccc1-c1n[nH]nc1C(=O)O`, the pIC50 is 5.44.

`Cc1ccccc1-c1n[nH]nc1C(=O)O`: the negative-log IC50 (pIC50) is 4.79.

`O=C(O)c1n[nH]nc1-c1ccccc1-c1ccccc1`: the IC50 result was “inactive”.

With `CC(C)Oc1ccccc1-c1n[nH]nc1C(=O)O`, the pIC50 is 5.54.

In the case of `CCc1ccccc1-c1n[nH]nc1C(=O)O`, the pIC50 was 4.70.

Consider `CC(C)c1ccccc1-c1n[nH]nc1C(=O)O`, for which the IC50 entry was “inactive”.
